Patent publication US20140272067A1, “ORGANIC COMPOUNDS” (Givaudan S.A., priority 2011, published 2014)

Tests used:
Format in all cases: in vivo
[1] = Taste panel: umami and salt intensity of solution B vs reference solution A (Example 2); details: 10 ppm compound in 0.5% NaCl and 0.03% MSG vs same solution without compound; scale -3 (much lower than base) to 3 (much higher than base); average of 4 flavourists
Experimental: Two solutions were prepared: • A a solution of 0.5% NaCl and 0.03% MSG • B a solution of 0.5% NaCl and 0.03% MSG and 10 ppm Example 1 compound
The samples were tasted by a small group of flavourists (2 male, 2 female, aged between 30 and 60). The intensity of the umami and salt taste of solution B was compared with that of the reference (solution A) and rated according to the following intensity scale: • Taste effect much lower than base: −3 • Taste effect lower than base: −2 • Taste effect slightly lower than base: −1 • Taste effect same as base: 0 • Taste effect slightly higher than base: 1 • Taste effect higher than base: 2 • Taste effect much higher than base: 3
The results (average of ratings given by the flavourists) were: […]

[2] = Taste panel: bouillon with compound vs reference bouillon (Example 4); details: 200 ppm in bouillon (32 g mix in 1 L boiling water); 4 flavourists
Experimental: A bouillon mix was prepared from 155.0 g of sodium chloride, 157.0 g of dextrose monohydrate (ex Tapioca), 0.2 g of celery oleoresin, 0.3 g of oleoresin turmeric Vegex, 0.2 g of oleoresin coriander seed, 444.8 g maltodextrin 5-8 DE, 40.0 g vegetable oil soya bean refined, 30.0 g yeast standard light, 4.0 g of onion powder, 4.0 g of garlic powder, 0.5 g of white pepper and 164.0 g of potato starch.
32 g of the well-mixed ingredients was added to 1 L of boiling water and stirred until completely dissolved.
A small group of flavourists (2 male, 2 female) compared the taste of the reference bouillon with that of a batch of the same bouillon containing 200 ppm of N-methyl-D-aspartic acid.

[3] = Taste panel: enhancement effect on NaCl, MSG and ribonucleotides taste (Example 3); details: 5-10 flavourists
Experimental: Six solutions were prepared: • A a solution of 0.5% NaCl • B a solution of 0.5% NaCl and 0.03% MSG • C a solution of 0.5% NaCl and 0.015% ribonucleotides • D a solution of 0.5% NaCl and 50 ppm Example 1 compound • E a solution of 0.5% NaCl and 0.03% MSG and 50 ppm Example 1 compound • F a solution of 0.5% NaCl and 0.015% ribonucleotides and 50 ppm Example 1 compound
The samples were tasted by a group of 5-10 flavourists aged between 30 and 60. The taste of solution D is compared with that of A to determine the enhancement effect of Example 1 compound on NaCl. Similarly, solution E is compared with solution B and solution F with solution C to determine the enhancement effect of Example 1 compound on MSG and ribonucleotides respectively. The effect is marked between 0 and 10, the greater the value the greater the effect.

Row | SMILES | Intensity Taste Salt (NaCl) [1] | Intensity Taste Umami [1] | Salivating effect of test bouillon vs reference bouillon [2] | Umami taste of test bouillon vs reference bouillon [2] | NaCl Taste ([3]; 50 ppm compound in 0.5% NaCl (solution D) vs solution A (reference 0.0), marked 0 to 10, the greater the value the greater the effect) | Ribo taste ([3]; 50 ppm compound in 0.5% NaCl and 0.015% ribonucleotides (solution F) vs solution C (reference 5.0), marked 0 to 10) | MSG taste ([3]; 50 ppm compound in 0.5% NaCl and 0.03% MSG (solution E) vs solution B (reference 5.0), marked 0 to 10)
1 | CNC(CCC(=O)O)C(=O)O (racemic) [N-methyl-DL-glutamic acid, N-methyl-DL-glutamic Acid] | 1.00 | 0.00 | – | – | – | – | –
2 | CN[C@H](CC(=O)O)C(=O)O [N-methyl-D-aspartic acid, N-methyl-D-aspartic Acid] | 0.50 | 0.50 | slightly more salivating | slightly more umami | 0.7 | 6.3 | 5.3
